Where a SMILES comes first, the peptide text is derived from it. Bridges are numbered along the chain shown (N, C = ends). [ ]: non-standard residue; d: D form. The star is where a group is joined. ξ: configuration not given here. Ala(6-(2-MePh)pyridin-3-yl) = Cc1ccccc1-c1ccc(C[C@H](N)C(=O)O)cn1; Phe(3-CF3) = N[C@@H](Cc1cccc(C(F)(F)F)c1)C(=O)O; Ala(morpholin-4-yl) = N[C@@H](CN1CCOCC1)C(=O)O; Phe(4-COOH) = N[C@@H](Cc1ccc(C(=O)O)cc1)C(=O)O; Phe(2-CF3) = N[C@@H](Cc1ccccc1C(F)(F)F)C(=O)O; Bip = N[C@@H](Cc1ccc(-c2ccccc2)cc1)C(=O)O; Phe(3-Me) = Cc1cccc(C[C@H](N)C(=O)O)c1; 4Pal = N[C@@H](Cc1ccncc1)C(=O)O; 2Thi = N[C@@H](Cc1cccs1)C(=O)O; Cha = N[C@@H](CC1CCCCC1)C(=O)O; Cit = NC(=O)NCCC[C@H](N)C(=O)O; Carboxymethyl = O=C(O)C*; Orn = NCCC[C@H](N)C(=O)O; Dab = NCC[C@H](N)C(=O)O; Dap = NC[C@H](N)C(=O)O; ξPra = C#CCC(N)C(=O)O; Piv = CC(C)(C)C(=O)*
These molecules were tested against T1, human PD-1 / PD-L1-Ig binding on Jurkat cell line over-expressing human PD-1 (Jurkat-PD-1) (Homo sapiens, UniProt Q15116) (assay: Jurkat-PD-1 Cell Binding High-Content Screening Assay (CBA)). Settings: Jurkat-PD-1 cells, PE-labeled PD-L1-Ig 20 nM final; read-out: Jurkat HPD1_PDL1 IC50.
T1 construct: expressed in transfected cells; host or cells: Jurkat
T1 sequence (Q15116 25-288): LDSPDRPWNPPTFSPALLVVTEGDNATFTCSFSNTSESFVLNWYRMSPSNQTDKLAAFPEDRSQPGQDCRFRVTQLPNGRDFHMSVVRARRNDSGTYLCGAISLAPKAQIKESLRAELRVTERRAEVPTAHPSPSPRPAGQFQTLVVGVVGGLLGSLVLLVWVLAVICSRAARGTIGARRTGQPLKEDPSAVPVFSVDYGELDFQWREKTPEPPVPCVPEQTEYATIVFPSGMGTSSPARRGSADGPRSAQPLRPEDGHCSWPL
Format: cell-based
Procedure, shortened: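 Cell-bound PE-labeled PD-L1-Ig (20 nM final, 1 h) measured by high-content imaging after fixation and Hoechst 33342 counterstain. Compound was applied first for 2 h at 37° C. to Jurkat cells over-expressing human PD-1 in DMEM with 10% FCS.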

Row | IC50 | Compound
1 | 16.2 nM | CC[C@H](C)[C@@H]1NC(=O)[C@H](Cc2ccc(-c3ccccc3)cc2)NC(=O)[C@H](C(C)C)NC(=O)[C@H](Cc2cccc(C)c2)NC(=O)[C@H](CC(=O)O)NC(=O)[C@H](Cc2ccncc2)NC(=O)[C@H](CN)NC(=O)CSC[C@@H](C(=O)N[C@@H](C)C(N)=O)NC(=O)[C@H]([C@@H](C)O)NC(=O)[C@H](C(C)C)NC(=O)[C@H](CC2CCCCC2)NC(=O)[C@H](CCN)NC(=O)[C@@H](CC(C)C)NC(=O)[C@H](CCCN)NC1=O [Compound 1561]
2 | 19.5 nM | CC(C)[C@@H]1NC(=O)[C@H](Cc2c[nH]c3ccccc23)NC(=O)[C@H](CC(=O)O)NC(=O)[C@H](Cc2ccc(C(=O)O)cc2)NC(=O)[C@H](Cc2ccncc2)NC(=O)CSC[C@@H](C(=O)N[C@@H](C)C(N)=O)NC(=O)[C@H]([C@@H](C)O)NC(=O)[C@H](C(C)C)NC(=O)[C@H](CC2CCCCC2)NC(=O)[C@H](CCN)NC(=O)[C@@H](Cc2ccc(O)cc2)NC(=O)[C@H](CCCN)NC(=O)[C@H](CCC(=O)O)NC(=O)[C@H](Cc2ccc(-c3ccccc3)cc2)NC1=O [Compound 1445] ({CH2CO}-[4Pal][Phe(4-COOH)]DWV[Bip]E[Orn][dY][Dab][Cha]VTCA-NH2; thioether N-14)
3 | 33.1 nM | C#CCC(NC(=O)[C@H](CN)NC(=O)[C@@H]1CSCC(=O)N[C@@H](Cc2ccncc2)C(=O)N[C@@H](Cc2ccc(OCC(=O)O)cc2)C(=O)N[C@@H](CC(=O)O)C(=O)N[C@@H](Cc2c[nH]c3ccccc23)C(=O)N[C@@H](C(C)C)C(=O)N[C@@H](Cc2ccc(-c3ccccc3)cc2)C(=O)N[C@@H]([C@@H](C)CC)C(=O)N[C@@H](CCCN)C(=O)N[C@H](CC(C)C)C(=O)N[C@@H](CCN)C(=O)N[C@@H](CC(C)C)C(=O)N[C@@H](C(C)C)C(=O)N[C@@H]([C@@H](C)O)C(=O)N1)C(N)=O (stereo partly drawn) [Compound 1764] ({CH2CO}-[4Pal]Y(Carboxymethyl)DWV[Bip]I[Orn][dL][Dab]LVTC[Dap][ξPra]-NH2; thioether N-14)
4 | 22.7 nM | CC[C@H](C)[C@@H]1NC(=O)[C@H](Cc2ccc(-c3ccccc3)cc2)NC(=O)[C@H](C(C)C)NC(=O)[C@H](Cc2c[nH]c3ccccc23)NC(=O)[C@H](CC(=O)O)NC(=O)[C@H](Cc2ccc(O)cc2)NC(=O)[C@H](CC(N)=O)NC(=O)CSC[C@@H](C(=O)N[C@@H](C)C(N)=O)NC(=O)[C@H]([C@@H](C)O)NC(=O)[C@H](C(C)C)NC(=O)[C@H](CC2CCCCC2)NC(=O)[C@H](CCCNC(=N)N)NC(=O)[C@@H](CC(C)C)NC(=O)[C@H](CCCN)NC1=O [Compound 1147] ({CH2CO}-NYDWV[Bip]I[Orn][dL]R[Cha]VTCA-NH2; thioether N-14)
5 | 43.7 nM | CC(C)C[C@H]1NC(=O)[C@H](CCCN)NC(=O)[C@H](CCC(=O)O)NC(=O)[C@H](Cc2ccc(-c3ccccc3)cc2)NC(=O)[C@H](C(C)C)NC(=O)[C@H](Cc2c[nH]c3ccccc23)NC(=O)[C@H](CC(=O)O)NC(=O)[C@H](Cc2ccc(OCC(=O)O)cc2)NC(=O)[C@H](CN)NC(=O)CSC[C@@H](C(=O)N[C@@H](C)C(N)=O)NC(=O)[C@H]([C@@H](C)O)NC(=O)[C@H](C(C)C)NC(=O)[C@H](Cc2ccccc2C(F)(F)F)NC(=O)[C@H](CCN)NC1=O [Compound 1486] ({CH2CO}-[Dap]Y(Carboxymethyl)DWV[Bip]E[Orn][dL][Dab][Phe(2-CF3)]VTCA-NH2; thioether N-14)
6 | 30.2 nM | Cc1cccc(C[C@@H]2NC(=O)[C@H](CC(=O)O)NC(=O)[C@H](Cc3ccc(C(=O)O)cc3)NC(=O)[C@H](Cc3ccc(OCC(=O)O)cc3)NC(=O)CSC[C@@H](C(=O)N[C@H](CCC(=O)O)C(=O)O)NC(=O)[C@H](CCCN)NC(=O)[C@H](C(C)C)NC(=O)[C@H](CC3CCCCC3)NC(=O)[C@H](CCN)NC(=O)[C@@H](CC(C)C)NC(=O)[C@H](CCN)NC(=O)[C@H](C(C)C)NC(=O)[C@H](Cc3ccc(-c4ccccc4)cc3)NC(=O)[C@H](C(C)C)NC2=O)c1 [Compound 2590] ({CH2CO}-Y(Carboxymethyl)[Phe(4-COOH)]D[Phe(3-Me)]V[Bip]V[Dab][dL][Dab][Cha]V[Orn]C[dE]-OH; thioether N-14)
7 | 1.9 nM | CC(C)C[C@H]1NC(=O)[C@H](CCCN)NC(=O)[C@H](Cc2ccc(C(=O)O)cc2)NC(=O)[C@H](Cc2ccc(-c3ccccc3)cc2)NC(=O)[C@H](Cc2cccs2)NC(=O)[C@H](Cc2cccc(C(F)(F)F)c2)NC(=O)[C@H](CC(=O)O)NC(=O)[C@H](Cc2ccc(C(=O)O)cc2)NC(=O)[C@H](CN2CCOCC2)NC(=O)CSC[C@@H](C(=O)N[C@@H](CCN)C(N)=O)NC(=O)[C@H](CCC(=O)O)NC(=O)[C@H](C(C)C)NC(=O)[C@H](CC2CCCCC2)NC(=O)[C@H](CCN)NC1=O [Example 2749] ({CH2CO}-[Ala(morpholin-4-yl)][Phe(4-COOH)]D[Phe(3-CF3)][2Thi][Bip][Phe(4-COOH)][Orn][dL][Dab][Cha]VEC[Dab]-NH2; thioether N-14)
8 | 38.5 nM | Cc1cccc(C[C@@H]2NC(=O)[C@H](CN)NC(=O)CSC[C@@H](C(=O)N[C@@H](C)C(N)=O)NC(=O)[C@H]([C@@H](C)O)NC(=O)[C@H](C(C)C)NC(=O)[C@H](CC3CCCCC3)NC(=O)[C@H](CCN)NC(=O)[C@@H](CC(C)C)NC(=O)[C@H](CCCN)NC(=O)[C@H](CCCNC(N)=O)NC(=O)[C@H](Cc3ccc(-c4ccccc4)cc3)NC(=O)[C@H](C(C)C)NC(=O)[C@H](Cc3c[nH]c4ccccc34)NC(=O)[C@H](CC(=O)O)NC2=O)c1 [Compound 2109] ({CH2CO}-[Dap][Phe(3-Me)]DWV[Bip][Cit][Orn][dL][Dab][Cha]VTCA-NH2; thioether N-14)
9 | 68.9 nM | CC(C)C[C@H]1NC(=O)[C@H](CCCN)NC(=O)[C@H](CCCNC(N)=O)NC(=O)[C@H](Cc2ccc(-c3ccccc3)cc2)NC(=O)[C@H](C(C)C)NC(=O)[C@H](Cc2c[nH]c3ccccc23)NC(=O)[C@H](CC(=O)O)NC(=O)[C@H](Cc2csc3ccccc23)NC(=O)[C@H](CN)NC(=O)CSC[C@@H](C(=O)N[C@@H](C)C(N)=O)NC(=O)[C@H]([C@@H](C)O)NC(=O)[C@H](C(C)C)NC(=O)[C@H](CC2CCCCC2)NC(=O)[C@H](CCN)NC1=O [Compound 2114]
10 | 7.7 nM | CC(C)C[C@H]1NC(=O)[C@H](CCCN)NC(=O)[C@H](CCC(=O)O)NC(=O)[C@H](Cc2ccc(-c3ccccc3)cc2)NC(=O)[C@H](C(C)C)NC(=O)[C@H](Cc2c[nH]c3ccccc23)NC(=O)[C@H](CC(=O)O)NC(=O)[C@H](Cc2ccc(C(=O)O)cc2)NC(=O)[C@H](Cc2ccccc2)NC(=O)CSC[C@@H](C(=O)N[C@@H](C)C(N)=O)NC(=O)[C@H]([C@@H](C)O)NC(=O)[C@H](C(C)C)NC(=O)[C@H](CC2CCCCC2)NC(=O)[C@H](CCN)NC1=O [Compound 2158] ({CH2CO}-F[Phe(4-COOH)]DWV[Bip]E[Orn][dL][Dab][Cha]VTCA-NH2; thioether N-14)
11 | 18.6 nM | CC(C)C[C@H]1NC(=O)[C@H](CCCN)NC(=O)[C@H](CCCNC(N)=O)NC(=O)[C@H](Cc2ccc(-c3ccccc3)cc2)NC(=O)[C@H]([C@@H](C)O)NC(=O)[C@H](Cc2c[nH]c3ccccc23)NC(=O)[C@H](CC(=O)O)NC(=O)[C@H](Cc2ccc(OCC(=O)O)cc2)NC(=O)[C@H](CN)NC(=O)CSC[C@@H](C(=O)N[C@@H](C)C(N)=O)NC(=O)[C@H]([C@@H](C)O)NC(=O)[C@H](C(C)C)NC(=O)[C@H](CC2CCCCC2)NC(=O)[C@H](CCN)NC1=O [Compound 1315] ({CH2CO}-[Dap]Y(Carboxymethyl)DWT[Bip][Cit][Orn][dL][Dab][Cha]VTCA-NH2; thioether N-14)
12 | 23.6 nM | Cc1cccc(C[C@@H]2NC(=O)[C@H](CC(=O)O)NC(=O)[C@H](Cc3ccc(OCC(=O)O)cc3)NC(=O)[C@H](CN)NC(=O)CSC[C@@H](C(=O)N[C@@H](CCNC(=O)C(C)(C)C)C(N)=O)NC(=O)[C@H]([C@@H](C)O)NC(=O)[C@H](C(C)C)NC(=O)[C@H](CC3CCCCC3)NC(=O)[C@H](CCN)NC(=O)[C@@H](CC(C)C)NC(=O)[C@H](CCN)NC(=O)[C@H](Cc3ccc(OCC(=O)O)cc3)NC(=O)[C@H](Cc3ccc(-c4ccccc4)cc3)NC(=O)[C@H](Cc3ccc(OCC(=O)O)cc3)NC2=O)c1 [Compound 2061] ({CH2CO}-[Dap]Y(Carboxymethyl)D[Phe(3-Me)]Y(Carboxymethyl)[Bip]Y(Carboxymethyl)[Dab][dL][Dab][Cha]VTC[Dab](Piv)-NH2; thioether N-14)
13 | 26.5 nM | CC(C)C[C@H]1NC(=O)[C@H](CCCN)NC(=O)[C@H](CCC(=O)O)NC(=O)[C@H](Cc2ccc(-c3ccccc3)cc2)NC(=O)[C@H](C(C)C)NC(=O)[C@H](Cc2cccs2)NC(=O)[C@H](CC(=O)O)NC(=O)[C@H](Cc2ccncc2)NC(=O)[C@H](Cc2ccc(OCC(=O)O)cc2)NC(=O)CSC[C@@H](C(=O)N[C@@H](C)C(N)=O)NC(=O)[C@H]([C@@H](C)O)NC(=O)[C@H](C(C)C)NC(=O)[C@H](CC2CCCCC2)NC(=O)[C@H](CCN)NC1=O [Compound 2202] ({CH2CO}-Y(Carboxymethyl)[4Pal]D[2Thi]V[Bip]E[Orn][dL][Dab][Cha]VTCA-NH2; thioether N-14)
14 | 22.8 nM | CCC(C)[C@@H]1NC(=O)[C@H](Cc2ccc(-c3ccccc3)cc2)NC(=O)[C@H](C(C)C)NC(=O)[C@H](Cc2cccc(C)c2)NC(=O)[C@H](CC(=O)O)NC(=O)[C@H](Cc2cccnc2)NC(=O)[C@H](Cc2ccncc2)NC(=O)CSC[C@@H](C(=O)N[C@@H](C)C(N)=O)NC(=O)[C@H]([C@@H](C)O)NC(=O)[C@H](C(C)C)NC(=O)[C@H](CC2CCCCC2)NC(=O)[C@H](CCN)NC(=O)[C@@H](CC(C)C)NC(=O)[C@H](CCCN)NC1=O (stereo partly drawn) [Compound 2237]
15 | 131 nM | Cc1ccccc1-c1ccc(C[C@@H]2NC(=O)[C@H](CN)NC(=O)CSC[C@@H](C(=O)N[C@@H](C)C(N)=O)NC(=O)[C@H]([C@@H](C)O)NC(=O)[C@H](C(C)C)NC(=O)[C@H](CC3CCCCC3)NC(=O)[C@H](CCN)NC(=O)[C@@H](CC(C)C)NC(=O)[C@H](CCCN)NC(=O)[C@H](CCCNC(N)=O)NC(=O)[C@H](Cc3ccc(-c4ccccc4)cc3)NC(=O)[C@H](C(C)C)NC(=O)[C@H](Cc3c[nH]c4ccccc34)NC(=O)[C@H](CC(=O)O)NC2=O)cn1 [Compound 2135] ({CH2CO}-[Dap][Ala(6-(2-MePh)pyridin-3-yl)]DWV[Bip][Cit][Orn][dL][Dab][Cha]VTCA-NH2; thioether N-14)

— patent publication US20250163104A1, “MACROCYCLIC IMMUNOMODULATORS” (priority 2021, published 2025)
